Experimental data published in PubChem BioAssay AID248 (DTP/NCI, 2004).
Several values for one entry are separate records, joined by “and”; a condition that tells them apart may be missing. Identical values can stand only once. Inconclusive results and toxic doses are left out. Cut-off read from the data, not from the text of the source: active = T/C of 150% or more; inactive = T/C below 125%.

Test system: L1210 leukemia ip in BDF1 mice, survival T/C
Assay: NCI In Vivo Anticancer Drug Screen. Data for tumor model L1210 Leukemia (intraperitoneal) in B6D2F1 (BDF1) mice
Conditions: endpoint: mean survival time, higher = longer survival
Outline: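 Ratio derived from survival: compound-dosed mice over vehicle-dosed mice, all bearing a transplantable tumor.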

[1] = dose: 100.0 mg/kg/injection, schedule: Q01DX001 (ip), vehicle: other
[2] = dose: 200.0 mg/kg/injection, schedule: Q01DX001 (ip), vehicle: other
[3] = dose: 400.0 mg/kg/injection, schedule: Q01DX001 (ip), vehicle: other
[4] = dose: 100.0 mg/kg/injection, schedule: Q04DX003 (ip), vehicle: saline with Tween-80
[5] = dose: 200.0 mg/kg/injection, schedule: Q04DX003 (ip), vehicle: saline with Tween-80
[6] = dose: 400.0 mg/kg/injection, schedule: Q04DX003 (ip), vehicle: saline with Tween-80
[7] = dose: 100.0 mg/kg/injection, schedule: Q01DX001 (ip), vehicle: carboxymethylcellulose (CMC)
[8] = dose: 200.0 mg/kg/injection, schedule: Q01DX001 (ip), vehicle: carboxymethylcellulose (CMC)
[9] = dose: 400.0 mg/kg/injection, schedule: Q01DX001 (ip), vehicle: carboxymethylcellulose (CMC)
[10] = dose: 100.0 mg/kg/injection, schedule: Q01DX001 (ip), vehicle: saline with Tween-80
[11] = dose: 100.0 mg/kg/injection, schedule: Q01DX009 (ip), vehicle: saline with Tween-80
[12] = dose: 200.0 mg/kg/injection, schedule: Q01DX001 (ip), vehicle: saline with Tween-80
[13] = dose: 200.0 mg/kg/injection, schedule: Q01DX009 (ip), vehicle: saline with Tween-80
[14] = dose: 400.0 mg/kg/injection, schedule: Q01DX001 (ip), vehicle: saline with Tween-80
[15] = dose: 400.0 mg/kg/injection, schedule: Q01DX009 (ip), vehicle: saline with Tween-80
[16] = dose: 100.0 mg/kg/injection, schedule: Q01DX009 (ip), vehicle: Klucel (hydroxypropylcellulose) (HPC)
[17] = dose: 100.0 mg/kg/injection, schedule: Q04DX002 (ip), vehicle: Klucel (hydroxypropylcellulose) (HPC)
[18] = dose: 200.0 mg/kg/injection, schedule: Q01DX009 (ip), vehicle: Klucel (hydroxypropylcellulose) (HPC)
[19] = dose: 200.0 mg/kg/injection, schedule: Q04DX002 (ip), vehicle: Klucel (hydroxypropylcellulose) (HPC)
[20] = dose: 400.0 mg/kg/injection, schedule: Q01DX009 (ip), vehicle: Klucel (hydroxypropylcellulose) (HPC)
[21] = dose: 400.0 mg/kg/injection, schedule: Q04DX002 (ip), vehicle: Klucel (hydroxypropylcellulose) (HPC)
[22] = dose: 25.0 mg/kg/injection, schedule: Q04DX003 (ip), vehicle: Klucel (hydroxypropylcellulose) (HPC)
[23] = dose: 50.0 mg/kg/injection, schedule: Q04DX003 (ip), vehicle: Klucel (hydroxypropylcellulose) (HPC)

Measured: T/C

Oc1ccccc1C=NCCN=Cc1ccccc1O.[Cu]
inactive: [1] 97 % of control | dose: 100.0 mg/kg/injection, schedule: Q04DX002 (ip), vehicle: saline 99 % of control | [2] 103 % of control | dose: 200.0 mg/kg/injection, schedule: Q04DX002 (ip), vehicle: saline 99 % of control | [3] 94 % of control | dose: 400.0 mg/kg/injection, schedule: Q04DX002 (ip), vehicle: saline 96 % of control

O=C1CCCc2ccc(Br)cc21
inactive: [4] 99 % of control | [5] 96 % of control | [6] 99 % of control

Cc1ccnc(NS(=O)(=O)c2ccc(N=Nc3c(N)nc(N)[nH]c3=O)cc2)n1
inactive: [7] 103 % of control | [8] 97 % of control | [9] 103 % of control

Cc1ccc(Cl)cc1NC(=O)N1CCN(c2ccccc2)CC1
inactive: [10] 95 % of control | [11] 98 % of control and 103 % of control | dose: 100.0 mg/kg/injection, schedule: Q04DX002 (ip), vehicle: saline with Tween-80 120 % of control | dose: 100.0 mg/kg/injection, schedule: Q04DX003 (ip), vehicle: saline 101 % of control | [12] 87 % of control | [13] 100 % of control and 102 % of control | dose: 200.0 mg/kg/injection, schedule: Q04DX002 (ip), vehicle: saline with Tween-80 98 % of control and 86 % of control | dose: 200.0 mg/kg/injection, schedule: Q04DX003 (ip), vehicle: saline 90 % of control | [14] 100 % of control | [15] 92 % of control | dose: 400.0 mg/kg/injection, schedule: Q04DX002 (ip), vehicle: saline with Tween-80 95 % of control and 89 % of control | dose: 400.0 mg/kg/injection, schedule: Q04DX003 (ip), vehicle: saline 95 % of control

O=C(Nc1cc2c3ccccc3ccc2c2ccccc12)C(F)(F)F
inactive: [7] 91 % of control | [8] 92 % of control | [9] 97 % of control

FC(F)(F)c1ccccc1NC(=S)N(Cc1ccccc1)Cc1ccccc1
inactive: [16] 92 % of control | [17] 110 % of control | [18] 103 % of control | [19] 92 % of control | [20] 96 % of control | [21] 100 % of control

COc1ccc(C(=O)NO)cc1
inactive: dose: 100.0 mg/kg/injection, schedule: Q01DX009 (ip), vehicle: carboxymethylcellulose (CMC) 96 % of control | dose: 200.0 mg/kg/injection, schedule: Q01DX009 (ip), vehicle: carboxymethylcellulose (CMC) 102 % of control | dose: 400.0 mg/kg/injection, schedule: Q01DX009 (ip), vehicle: carboxymethylcellulose (CMC) 101 % of control

CN(/N=N/c1nc[nH]c1C(N)=O)C(C)(C)C
inactive: dose: 12.5 mg/kg/injection, schedule: Q01DX009 (ip), vehicle: saline with Tween-80 103 % of control | dose: 12.5 mg/kg/injection, schedule: Q04DX009 (ip), vehicle: saline with Tween-80 98 % of control | dose: 25.0 mg/kg/injection, schedule: Q01DX009 (ip), vehicle: saline with Tween-80 93 % of control | [22] 100 % of control | dose: 25.0 mg/kg/injection, schedule: Q04DX009 (ip), vehicle: saline with Tween-80 103 % of control | dose: 50.0 mg/kg/injection, schedule: Q01DX009 (ip), vehicle: saline with Tween-80 101 % of control | [23] 103 % of control | dose: 50.0 mg/kg/injection, schedule: Q04DX009 (ip), vehicle: saline with Tween-80 103 % of control | [16] 97 % of control | [11] 103 % of control | dose: 100.0 mg/kg/injection, schedule: Q04DX003 (ip), vehicle: Klucel (hydroxypropylcellulose) (HPC) 102 % of control | dose: 100.0 mg/kg/injection, schedule: Q04DX009 (ip), vehicle: saline with Tween-80 103 % of control | [18] 96 % of control | [13] 103 % of control | dose: 200.0 mg/kg/injection, schedule: Q04DX003 (ip), vehicle: Klucel (hydroxypropylcellulose) (HPC) 111 % of control | dose: 200.0 mg/kg/injection, schedule: Q04DX009 (ip), vehicle: saline with Tween-80 101 % of control | [20] 97 % of control | [15] 97 % of control | dose: 400.0 mg/kg/injection, schedule: Q04DX003 (ip), vehicle: Klucel (hydroxypropylcellulose) (HPC) 105 % of control | dose: 400.0 mg/kg/injection, schedule: Q04DX009 (ip), vehicle: saline with Tween-80 101 % of control

Oc1ccc(C2=NNC(c3ccc(O)cc3)=NN2)cc1
inactive: [17] 105 % of control | [19] 97 % of control | [21] 94 % of control

Oc1ccccc1C=Nc1ccccc1O.[Zn+2]
inactive: [1] 94 % of control | [2] 91 % of control | [3] 91 % of control

CCn1c2ccccc2c2cc(NC(C)=O)ccc21
inactive: [4] 103 % of control | [5] 98 % of control | [6] 101 % of control

CS(=O)(=O)N1C=CC=CC=C1
inactive: dose: 12.5 mg/kg/injection, schedule: Q01DX009 (ip), vehicle: Klucel (hydroxypropylcellulose) (HPC) 91 % of control | dose: 12.5 mg/kg/injection, schedule: Q04DX003 (ip), vehicle: Klucel (hydroxypropylcellulose) (HPC) 96 % of control | dose: 25.0 mg/kg/injection, schedule: Q01DX009 (ip), vehicle: Klucel (hydroxypropylcellulose) (HPC) 95 % of control | [22] 98 % of control | dose: 50.0 mg/kg/injection, schedule: Q01DX009 (ip), vehicle: Klucel (hydroxypropylcellulose) (HPC) 95 % of control | [23] 105 % of control

CCCCCCCCCCCCCCCCCC(=O)NCNC(=O)CCCCCCCCCCCCCCCCC
inactive: dose: 9.37 mg/kg/injection, schedule: Q01DX009 (ip), vehicle: saline with Tween-80 92 % of control | dose: 18.75 mg/kg/injection, schedule: Q01DX009 (ip), vehicle: saline with Tween-80 90 % of control | dose: 37.5 mg/kg/injection, schedule: Q01DX009 (ip), vehicle: saline with Tween-80 86 % of control and 89 % of control | dose: 37.5 mg/kg/injection, schedule: Q04DX003 (ip), vehicle: saline with Tween-80 89 % of control | dose: 75.0 mg/kg/injection, schedule: Q04DX003 (ip), vehicle: saline with Tween-80 89 % of control | dose: 150.0 mg/kg/injection, schedule: Q04DX003 (ip), vehicle: saline with Tween-80 87 % of control

O=C(OC1CSC1)c1ccc([N+](=O)[O-])cc1
inactive: [16] 95 % of control | [18] 92 % of control | [20] 97 % of control

O=C(COc1cc(Cl)c(Cl)cc1Cl)Nc1ccc(Cl)cc1
inactive: [17] 103 % of control | [19] 106 % of control | [21] 103 % of control

O=C(O)c1ccc(NCc2cccc(N=Cc3ccccc3)c2)cc1
inactive: [10] 93 % of control | [12] 93 % of control | [14] 103 % of control

C(/C=C\c1ccccc1)=Nc1ccccc1
inactive: [4] 95 % of control | [5] 95 % of control | [6] 92 % of control

CCSC(=O)N1c2ccc(C)cc2C=CC1C#N (stereo not drawn)
inactive: [11] 93 % of control | [4] 90 % of control | [13] 104 % of control | [5] 89 % of control | [6] 95 % of control

CC(C)c1ccc(N2CSC(=S)N(c3ccc(C(C)C)cc3)C2)cc1
inactive: dose: 100.0 mg/kg/injection, schedule: Q04DX002 (sc), vehicle: olive oil, sesame oil, peanut oil 104 % of control | dose: 200.0 mg/kg/injection, schedule: Q04DX002 (sc), vehicle: olive oil, sesame oil, peanut oil 107 % of control | dose: 400.0 mg/kg/injection, schedule: Q04DX002 (sc), vehicle: olive oil, sesame oil, peanut oil 101 % of control

c1ccc(Sc2ccc3ccccc3c2)cc1
inactive: [11] 103 % of control | [13] 97 % of control | [15] 93 % of control

ClCCN(CCCl)c1ccc(C=Nc2ccc(-c3csc(-c4ccccc4)n3)c(Cl)c2)cc1
inactive: dose: 100.0 mg/kg/injection, schedule: Q01DX001 (sc), vehicle: carboxymethylcellulose (CMC) 94 % of control | dose: 200.0 mg/kg/injection, schedule: Q01DX001 (sc), vehicle: carboxymethylcellulose (CMC) 97 % of control | dose: 400.0 mg/kg/injection, schedule: Q01DX001 (sc), vehicle: carboxymethylcellulose (CMC) 103 % of control
